According to ChEMBL document CHEMBL3832761, “MMV Pathogen Box Bioactivity Data” (2017):
Values after ≈ are worked out from the molar mass of the structure shown.

Columns and labels:
[1] = test system: Plasmodium falciparum; test: Antimalarial activity: Asexual Blood Stage Plasmodium falciparum 3D7 IC50 (uM); assay type: functional, organism-based
[2] = HL60 CC50 (uM) Cytotoxicity; assay type: functional; conditions: HL-60
[3] = test system: Plasmodium berghei; test: Antimalarial activity: Liver Stage Plasmodium berghei sporozoite Luciferase assay: inhibition at 10 uM (%); assay type: functional
[4] = test system: Plasmodium falciparum; test: Antimalarial activity: Asexual Blood Stage Plasmodium falciparum Dd2 IC50 (uM); assay type: functional, organism-based
[5] = test system: HepG2; test: Cytotoxicity data HepG2 CC20 (uM); assay type: functional
[6] = test system: Plasmodium falciparum; test: Antimalarial activity: Gametocytes Plasmodium falciparum NF54 Gametocytes Stage V: inhibition at 10 uM (%); assay type: functional
[7] = test system: HepG2; test: HepG2 inhibition at 10 uM (%) Cytotoxicity; assay type: functional; conditions: Homo sapiens
[8] = test system: Mycobacterium tuberculosis; test: AntiMycobacterium tuberculosis activity 1-week GAST/Fe MIC (uM); assay type: functional; conditions: 168 h
[9] = test system: Mycobacterium tuberculosis; test: AntiMycobacterium tuberculosis activity 1-week 7H9/DPPC/cholesterol/BSA/Tx MIC (uM); assay type: functional; conditions: 168 h
[10] = test system: HepG2; test: HepG2 glucose CC50 (uM) Cytotoxicity; assay type: functional; conditions: Homo sapiens, HepG2
[11] = test system: Mycobacterium tuberculosis; test: (§1) AntiMycobacterium tuberculosis activity day 10 in 7H9/2.5mM butyrate/pH6/0.1mM nitrite MIC90 (uM); assay type: functional; conditions: 240 h
[12] = test system: Mycobacterium tuberculosis; test: AntiMycobacterium tuberculosis activity day 21 in 7H9/2.5mM butyrate/pH6/0.1mM nitrite MIC90 (uM); assay type: functional; conditions: 504 h
[13] = test system: Mycobacterium tuberculosis; test: AntiMycobacterium tuberculosis activity 2-week 7H9/ADC/Tw MIC (uM); assay type: functional; conditions: 336 h
[14] = test system: Mycobacterium tuberculosis; test: AntiMycobacterium tuberculosis activity 2-week Alamar Blue 7H9/ADC/Tw MIC (uM); assay type: functional; conditions: 336 h
[15] = test system: Mycobacterium tuberculosis; test: AntiMycobacterium tuberculosis activity 2-week Alamar Blue 7H9/cholesterol/BSA/Tx MIC (uM); assay type: functional; conditions: 336 h
[16] = test system: Mycobacterium tuberculosis; test: AntiMycobacterium tuberculosis activity day 21 MIC99 in 7H9/2.5mM butyrate/pH6/0.1mM nitrite MIC99 (uM); assay type: functional; conditions: 504 h
[17] = test system: Mycobacterium tuberculosis; test: AntiMycobacterium tuberculosis activity 2-week 7H9/DPPC/cholesterol/BSA/Tx MIC (uM); assay type: functional; conditions: 336 h
[18] = test system: HepG2; test: HepG2 galactose CC50 (uM) Cytotoxicity; assay type: functional; conditions: Homo sapiens, HepG2
[19] = test system: Mycobacterium tuberculosis; test: AntiMycobacterium tuberculosis activity 1-week 7H9/ADC/Tw MIC (uM); assay type: functional; conditions: 168 h
[20] = test system: Mycobacterium tuberculosis; test: AntiMycobacterium tuberculosis activity 2-week GAST/Fe MIC (uM); assay type: functional; conditions: 336 h
[21] = test system: Mycobacterium tuberculosis; test: AntiMycobacterium tuberculosis activity 2-week 7H9/glucose/BSA/Tx MIC (uM); assay type: functional; conditions: 336 h
[22] = test system: Mycobacterium tuberculosis; test: as §1; assay type: functional; conditions: 240 h; remark: listed apart in the source
[23] = test system: Mycobacterium tuberculosis; test: AntiMycobacterium tuberculosis activity 1-week 7H9/glucose/BSA/Tx MIC (uM); assay type: functional; conditions: 168 h
[24] = test system: Mycobacterium tuberculosis; test: AntiMycobacterium tuberculosis activity 1-week 7H9/cholesterol/BSA/Tx MIC (uM); assay type: functional; conditions: 168 h
[25] = test system: Plasmodium falciparum; test: Antimalarial activity: Asexual Blood Stage Plasmodium falciparum W2 IC50 (uM); assay type: functional, organism-based
[26] = test system: HepG2; test: HepG2 CC50 (uM) Cytotoxicity; assay type: functional; conditions: Homo sapiens
[27] = test system: Plasmodium berghei; test: Antimalarial activity: Liver Stage Plasmodium berghei sporozoite Luciferase assay IC50 (uM); assay type: functional, organism-based

| SMILES | IC50 [1] [nM] | CC50 [2] [nM] | Inhibition [3] [%] | IC50 [4] [nM] | CC20 [5] [nM] | Inhibition [6] [%] | inhibition at 10 µM [7] [%] | IC50 [25] [nM] | also measured |
| --- | --- | --- | --- | --- | --- | --- | --- | --- | --- |
| COc1cccc2c(C)nc(N=C(N)N)nc12 | 1060 | > 50000 | 42 | > 2000 | 8380 | 0 | 20 |  |  |
| O=C(N[C@H](Cc1ccccc1)C(=O)Nc1ccccc1N1CCOCC1)c1cccs1 |  |  |  |  |  |  |  |  | MIC [8]: 0.15 µM (≈ 0.0653 µg/mL); MIC [9]: 2.3 µM (≈ 1 µg/mL); CC50 [10]: > 50000 nM; MIC90 [11]: 6.25 µM (≈ 2.72 µg/mL); MIC90 [12]: 12.5 µM (≈ 5.44 µg/mL); MIC [13]: 1.2 µM (≈ 0.523 µg/mL); MIC [14]: 1.2 µM (≈ 0.523 µg/mL); MIC [15]: 3.13 µM (≈ 1.36 µg/mL); MIC [16]: > 50 µM; MIC [17]: 2.3 µM (≈ 1 µg/mL); CC50 [18]: > 50000 nM; MIC [19]: 1.2 µM (≈ 0.523 µg/mL); MIC [20]: 0.15 µM (≈ 0.0653 µg/mL); MIC [21]: 4.7 µM (≈ 2.05 µg/mL); MIC90 [22]: > 50 µM; MIC [23]: 3.13 µM (≈ 1.36 µg/mL); MIC [24]: 1.56 µM (≈ 0.679 µg/mL) |
| O=C(Nc1cccc(-c2ccc(NCCCN3CCCC3)nc2)c1)c1ccccc1 | 850 | > 50000 | 25 | 2740 | 17200 | 7 | 0 | 1660 |  |
| CCCNC(=O)N1CCC2(CC1)CC(=O)c1cc(C)ccc1O2 | 2060 | > 50000 | 3 | 3120 | >80000 | 1 | 0 | 1570 |  |
| CN1CCN(c2nccc3[nH]c(-c4cccc(F)c4)cc23)CC1 | 1460 | > 12500 | 40 | 2100 | 10400 | 29 | 2 | 2630 |  |
| O=C(NCCc1ccccc1)c1cc(-c2cccnc2)cnc1NCC1CC1 | 1290 | > 12500 | 39 | 2290 | 12900 | 4 | 5 | 1400 |  |
| O=C1COCc2ccc(Br)cc2N1Cc1ccc(C(F)(F)F)cc1 | 960 | > 50000 | 2 | 3060 | 38400 | 2 | 10 | 2260 |  |
| CCN(CC)CCCN1CCN(C(=O)c2cccc(-c3noc(C(F)(F)F)n3)c2)CC1 | 190 | > 50000 | 4 | 850 | >80000 | 18 | 0 | 310 |  |
| CC(C)(C)CN1C(=O)C(c2ccccc2)(c2ccccc2)N=C1N | 800 | 6500 | 25 | 1500 | 1170 | 2 | 0 | > 2000 |  |
| CCC(NC(=O)c1ccccc1NC(=O)c1ccc(C)cc1)C(=O)OC (configuration not stated) | 160 | > 50000 | 0 |  |  | 29 | 5 |  |  |
| OCc1ccc(-c2cncc(Nc3cccc(Cl)c3)c2)cc1 | 30 | > 25000 | 57 | 10 | 20500 | 5 | 7 |  |  |
| CS(=O)(=O)c1cccc(-c2cnc3[nH]cc(-c4ccc(CCC(=O)O)cc4)c3c2)c1 | 500 | > 50000 | 47 | 680 | >80000 | 38 | 16 | 910 |  |
| CC(C)(C)c1cc(C(=O)N2CCN(c3nccnc3C#N)CC2)n(Cc2ccccc2)n1 | 600 | > 50000 | 42 | 1000 | 22900 | 8 | 0 | 1300 |  |
| Nc1ncc(-c2cn[nH]c2)cc1-c1nc2cc(Cl)cnc2[nH]1 | 400 | > 50000 | 0 |  | 2820 | 0 | 7 |  |  |
| O=C(Nc1ccnc(-c2cccnc2)n1)c1cc(C(F)(F)F)cc(C(F)(F)F)c1 | 1050 | > 50000 | 0 | > 2000 | >80000 | 10 | 13 |  |  |
| CC(=O)Nc1ccc(NC(=O)c2cc(-c3cc(Cl)ccc3O)n[nH]2)cc1 | 350 | > 50000 | 0 | 480 | >80000 | 6 | 7 | 510 |  |
| CCCS(=O)(=O)N1CCC(CO)(Cc2ccccc2C(F)(F)F)CC1 | 1090 | > 50000 | 43 | 990 | >80000 | 19 | 0 | 1550 |  |
| Cc1cccc(NC(=O)c2cc(S(=O)(=O)N(C)c3ccc(F)cc3)ccc2Cl)n1 | 1580 |  | 86 | > 2000 | 26400 | 3 |  | 1070 | CC50 [26]: > 10000 nM; IC50 [27]: 6770 nM |
| CN1CCN(c2nccc3nc(-c4ccc(F)c(F)c4)[nH]c23)CC1 | 1130 |  | 56 | 1710 | 10300 | 32 |  | 2110 | CC50 [26]: > 10000 nM; IC50 [27]: > 10000 nM |
| Cc1cc(C)n2nc(C(=O)Nc3cc(C(F)(F)F)ccc3N3CCOCC3)nc2n1 | 220 |  | 88 | 220 | >80000 | 4 |  | 70 | CC50 [26]: > 10000 nM; IC50 [27]: 1210 nM |
| CC(C)(C)c1cc(C(=O)Nc2cccnc2)cc(C(=O)Nc2cccnc2)c1 | 900 | > 50000 | 12 | 1630 | 17200 | 10 | 19 | 1880 |  |
| Nc1nccc2ccc(Oc3ccncc3)cc12 | 230 |  | 52 | 740 | >80000 | 43 |  | 420 | CC50 [26]: > 10000 nM; IC50 [27]: > 10000 nM |
